This is an account of results in PubChem BioAssay AID651986 (The Scripps Research Institute Molecular Screening Center, 2013).

Common to all, as to test: in situ LYPLA1 and LYPLA2 inhibition, late-stage follow-up, gel-based ABPP, fluorescence, HEK293T, murine T cells (AID 651986)
In test [1] the target is Acyl-protein thioesterase 2 (Homo sapiens) (UniProt O95372). As to conditions: HEK293T or murine T cells, NHU5 gel-based ABPP, LYPLA2 HEK293T cells, at 5 µM, hits give high values.
For another test, the system named is LYPLA1 murine T cells. As to conditions: HEK293T or murine T cells, NHU5 gel-based ABPP, at 5 µM, hits give high values.
Test [2] has as its target Acyl-protein thioesterase 1 (Homo sapiens) (UniProt O75608). As to conditions: HEK293T or murine T cells, NHU5 gel-based ABPP, LYPLA1 HEK293T cells, at 5 µM, hits give high values.
In a further test the test system is LYPLA2 murine T cells. As to conditions: HEK293T or murine T cells, NHU5 gel-based ABPP, at 5 µM, hits give high values.

Calls of active or inactive are those of the source. The rule behind the calls is not given here.

Acyl-protein thioesterase 1 (Homo sapiens), sequence (O75608 whole entry, looked up): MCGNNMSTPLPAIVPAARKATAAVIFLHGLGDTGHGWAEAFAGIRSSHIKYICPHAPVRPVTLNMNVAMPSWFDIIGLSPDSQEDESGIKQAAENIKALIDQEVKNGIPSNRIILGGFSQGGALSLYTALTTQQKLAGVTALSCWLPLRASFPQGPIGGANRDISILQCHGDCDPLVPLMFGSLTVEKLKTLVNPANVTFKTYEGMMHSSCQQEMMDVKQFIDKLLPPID
Acyl-protein thioesterase 2 (Homo sapiens), sequence (O95372 whole entry, looked up): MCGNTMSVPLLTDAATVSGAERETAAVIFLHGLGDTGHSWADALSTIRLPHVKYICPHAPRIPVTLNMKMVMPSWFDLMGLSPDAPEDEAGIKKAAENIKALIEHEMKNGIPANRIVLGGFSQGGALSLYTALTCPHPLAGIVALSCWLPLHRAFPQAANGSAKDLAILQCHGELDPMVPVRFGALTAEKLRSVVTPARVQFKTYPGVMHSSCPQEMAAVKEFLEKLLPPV

Take `COc1ccc(N2CCN(C(=O)c3cc4c(s3)-c3ccccc3S(=O)(=O)C4)CC2)cc1`: the inhibition in test [1] was 100%; in the test on LYPLA1 murine T cells it was 0% (inactive); in test [2], 0% (inactive); in the test with LYPLA2 murine T cells, 100%.

As to `O=C(CN1CCN(C(=O)c2ccco2)CC1)Nc1cc(C(F)(F)F)ccc1Cl`, the inhibition in test [1] was 0% (inactive); in the test with LYPLA1 murine T cells, 100%; in test [2] it was 100%; with LYPLA2 murine T cells, 0% (inactive).
